Tests used:
[1] = Hershberger test; cited from earlier work
[2] = in vivo; cited from earlier work
[3] = pharmacokinetics of drospirenone; assay type: in vivo; settings: i.e. after at most a week
Source text: For example, in the present study, there was, a significant reduction of edema and breast tenderness among long-cycle users in comparison with the women on the conventional 21-day monthly cycle. Thus, in the event of these symptoms being present, a regimen of 42-126 days could be recommended.

Compound: C[C@]12CCC(=O)C=C1[C@@H]1C[C@@H]1[C@H]1[C@@H]3[C@@H]4C[C@@H]4[C@@]4(CCC(=O)O4)[C@@]3(C)CC[C@@H]12 [drospirenone]
- antiandrogenic properties compared with chlormadinone acetate [1]: exceed those of chlormadinone acetate
- antiandrogenic properties relative to cyproterone acetate [1]: approximately one-third
- half-life [2]: about 27 h
- time to steady state [3]: about four

Reference: US8501720B2, “Method for treatment of dysmenorrhea” (Bayer Pharma AG, priority 2004, dated 2013)
